From patent US20010053796A1, “Delta-aminolevulinic acid for prevention and treatment of infection microorganisms and parasite” (priority 2000, published 2001)

Experiments:
Edwardsiella tarda [1] = test: Proliferation inhibition of pathogenic bacteria in BHI broth (620 nm); type: cell-based; conditions: product on the market (Sigma)
Experimental: (§1) Pathogenic index bacteria used in this experiment are Edwardsiella tard, Streptococcus sp., Staphylococcus sp., Staphylococcus epidermidis, Pseudomonas sp., Vibrio anguillarum which are collected from the marine fish farm nearby Yeosu. In solid culture, they were cultured in TSA (tryptic soy agar) supplemented with 0.2% NaCl flat media and in liquid culture, they were prepared by culturing in BHI broth for 24 hrs and setting the O.D. value as 1.0. δ-aminolevulinic acid used in this experiment were one on the market (Sigma) and one formulated by inventors of the present invention (Korean patent application No. 1998-41898). Each 0.167 g δ-aminolevulinic acid were dissolved in 1.0 mL sterilized distilled water was used as undiluted solution. 1.0 M δ-aminolevulinic acid was 2-fold diluted with BHI broth by stages up to 64-fold and prepared for test solution to examine pathogenic bacteria proliferation-prohibiting effect. […] In control group, instead of δ-aminolevulinic acid, BHI broth bacteria suspension were mixed with (1:1) and then observed with the same method above. MIC assay by δ-aminolevulinic acid for major pathogenic bacteria of marine cultivating fishes, Edwardsiella tard, Streptococcus sp., Staphylococcus sp., Staphylococcus epidermidis, Pseudomonas sp., Vibrio anguillarum was carried out by flat drug disc method. 100 μL of each bacteria in a culture solution was mixed with fixed amount of top agar and coated to TSA agar. 1.0 M δ-aminolevulinic acid solution was diluted by 2 folds in PBS and 10 μL of each dilution were absorbed to sterilized disc. After incubation at 23˜25° C. for 2˜3 days, antibacterial effect was indicated by measuring the size (mm) of clear zone. In control group, PBS was absorbed into disc instead of δ-aminolevulinic acid dilution solution with the same amount and observed. From the result of this experiment using δ-aminolevulinic acid on the market, proliferation-inhibiting effects of pathogenic bacteria according to δ-aminolevulinic acid concentration are shown in Table 2a (Edwardsiella tard) and Table 2b (Streptococcus sp.). Below 1/32 fold (31 mM) of δ-aminolevulinic acid dilution rate, proliferation of both bacteria was inhibited. […] The experimental result of δ-aminolevulinic acid prepared by the inventors has shown in Table 3 and no difference in effects from δ-aminolevulinic acid on the market.

Streptococcus sp. = test: as above; type: cell-based; conditions: product on the market (Sigma)
Experimental: as §1

Staphylococcus epidermis [2] = test: Prevention effect for artificial infection (abdominal injection of bacteria); type: in vivo, Sebastes schlegeli; conditions: for Mortality during Cultivation: dead of 20 fish
Experimental: (§2) The water temperature was maintained at 20° C. (±2° C. ) throughout the experiment. […]
Bastardhalibut and Sebastes schlegeli were infected by […] Staphylococcus epidermis through abdominal injection with the same method of fish breeding; δ-aminolevulinic acid treatment and artificial carried out in Experiment 1 and 2. Each experimental fish was moved to fish tanks for monitoring and monitored for mortality according to infection for 2 weeks. […] The treated group, with δ-aminolevulinic acid by tank administraion method and oral administration method, has shown high viability.

Staphylococcus sp. [3] = test: as above; type: in vivo, Bastardhalibut; conditions: for Mortality during Cultivation: dead of 20 fish
Experimental: as §2
Bastardhalibut and Sebastes schlegeli were infected by Staphylococcus sp. by abdominal injection with the same method of fish breeding δ-aminolevulinic acid treatment and artificial infection carried out in Experiment 1 and 2. Each experimental fish was moved to fish tanks for monitoring and monitored for mortality according to infection for 2 weeks.

Staphylococcus epidermis [4] = test: Treatment effect of infected fry by oral administration in feed; type: in vivo, Sebastes schlegeli; conditions: 50 fish, Bastardhalibut
Experimental: (§3) In this example, fry of Bastardhalibut and Sebastes schlegeli (mean body weight 2 g), 50 per each breeding tank, were preliminary-bred for 1 week and stabilized. […] The artificial infection methods were carried out through the digestion method. Pathogenic organisms were applied into fish tanks and introduced into seawater for an hour, wherein the concentration of organisms adjusted to 10^4 CFU/mL. Treatment conditions are as follows; after artificial infection, infected fish were moved to fish tanks and kept in the infection period for 3 days. On the fourth day of infection, 0.1˜50 ppm of δ-aminolevulinic acid for feed were added. The fish were bred for 2 weeks after exchanging with clean seawater and the mortality of fish according to infection was monitored. In the control groups, after each bacteria were identically infected through digestion method, mortality of Bastardhalibut and Sebastes schlegeli according to bacteria infection was identified while breeding with marketing assorted feed without δ-aminolevulinic acid. As a result of this experiment, δ-aminolevulinic acid-treated groups have shown high viability in both Bastardhalibut (Table 20˜Table 23) and Sebastes schlegeli (Table 24˜Table 27).

Staphylococcus sp. [5] = test: as above; type: in vivo, Sebastes schlegeli; conditions: 50 fish, Bastardhalibut
Experimental: as §3

Edwardsiella tarda [6] = test: Treatment of Edwardsiella bacteria-infected fish in a fish farm; type: in vivo, flatfish
Source text: Infected fish cultivated in the terrestrial fish tank were found in a fish farm, where flatfish (mean weight 11 g) were dying by spontaneous attack. The main source of infection was Edwardsiella tardaa. About 30˜40% of cumulative mortality per cultivating tank has shown after 5 days since the mortality started. […] On the first day, 0.1 ppm δ-aminolevulinic acid was digestion-treated in two tanks for 2 hrs and on the second and third day, 0.01 ppm δ-aminolevulinic acid was digested for 2 hrs. They were then observed, during the water was exchanged. δ-aminolevulinic acid digestion-treated tanks (about 3,000 fish) has maintained 40% cumulative mortality for 1 week after treatment, while δ-aminolevulinic acid non-treated tanks has shown 60% cumulative mortality and progressive disease was observed, more reporting 20% cumulative mortality thereafter.

[7] = system: RTG-2 (Rainbow Trout Gonad); conditions: 24 h
Experimental: δ-aminolevulinic acid feed were prepared to 1.0 M concentration (0. 167 g/mL HBSS) and diluted by 10-fold dilution method. 100 μl of each fish cell line suspension of 2.5×10^5 were placed into 96-well microplate and then, 100 μl of each of the resulting diluted solution, 4 well/dilution unit, were added respectively. Fish cell lines, which were used for this cell toxicity experiment of δ-aminolevulinic acid, were RTG-2 (Rainbow Trout Gonad), FHM (Fathead Minnow Epithelioma) and CHSE (Chinook Salmon Embryo) lotted out from Dr. M. Yoshimizu of the Department of Fisheries, Hokkaido University, Japan. For these experimental cells, 100 U/mL penicillin (Sigma), 100 μl/mL streptomycin (Sigma) and MEM media supplemented with 5% fetal bovine serum (FBS, Gibco) for cell culture were used. Cultured cells in 96-well microplate was incubated for 3 hrs at 15° C. and δ-aminolevulinic acid were added to wells at amounts of 100 μl of 0, 1.0, 10, 50 and 100 mM and incubated for 24 hrs at 18° C. As a control group, instead of δ-aminolevulinic acid, HBSS was added at the same amount. […] Absorbance was measured with an ELISA reader at 570 μl.

[8] = above 1/64 fold (16 mM) dilution rate
[9] = below 1/32 fold (31 mM) dilution rate, 24 hrs, 25° C.
[10] = feed 0.1 ppm from 4th day of infection
[11] = feed 1.0 ppm from 4th day of infection
[12] = feed 10 ppm from 4th day of infection
[13] = feed 50 ppm from 4th day of infection

## NCC(=O)CCC(=O)O [δ-aminolevulinic acid]
Edwardsiella tarda [1]; [8]
  proliferation of bacteria: no significant difference from the control group
Edwardsiella tarda [1]; [9]
  proliferation of bacteria: inhibited
Streptococcus sp.; [8]
  proliferation of bacteria: no significant difference from the control group
Streptococcus sp.; [9]
  proliferation of bacteria: inhibited
Staphylococcus epidermis [2]; orally, 0.1 ppm in feed
  Viability: 50%
  Mortality during Cultivation: 10
Staphylococcus epidermis [2]; orally, 1.0 ppm in feed
  Viability: 50%
  Mortality during Cultivation: 10
Staphylococcus epidermis [2]; orally, 10 ppm in feed
  Viability: 75%
  Mortality during Cultivation: 5
Staphylococcus epidermis [2]; orally, 100 ppm in feed
  Viability: 80%
  Mortality during Cultivation: 4
Staphylococcus epidermis [2]; to fish tanks, 0.01 ppm
  Viability: 55%
  Mortality during Cultivation: 9
Staphylococcus epidermis [2]; to fish tanks, 0.1 ppm
  Viability: 55%
  Mortality during Cultivation: 9
Staphylococcus epidermis [2]; to fish tanks, 1.0 ppm
  Viability: 80%
  Mortality during Cultivation: 4
Staphylococcus epidermis [2]; to fish tanks, 10 ppm
  Viability: 80%
  Mortality during Cultivation: 4
Staphylococcus sp. [3]; orally, 0.1 ppm in feed
  Viability: 55%
  Mortality during Cultivation: 9
Staphylococcus sp. [3]; orally, 1.0 ppm in feed
  Viability: 65%
  Mortality during Cultivation: 7
Staphylococcus sp. [3]; orally, 10 ppm in feed
  Viability: 95%
  Mortality during Cultivation: 1
Staphylococcus sp. [3]; orally, 100 ppm in feed
  Viability: 90%
  Mortality during Cultivation: 2
Staphylococcus sp. [3]; to fish tanks, 0.01 ppm
  Viability: 55%
  Mortality during Cultivation: 9
Staphylococcus sp. [3]; to fish tanks, 0.1 ppm
  Viability: 75%
  Mortality during Cultivation: 5
Staphylococcus sp. [3]; to fish tanks, 1.0 ppm
  Viability: 90%
  Mortality during Cultivation: 2
Staphylococcus sp. [3]; to fish tanks, 10 ppm
  Viability: 95%
  Mortality during Cultivation: 1
Staphylococcus epidermis [4]; [10]
  Viability: 36%
Staphylococcus epidermis [4]; [11]
  Viability: 63%
Staphylococcus epidermis [4]; [12]
  Viability: 64%
Staphylococcus epidermis [4]; [13]
  Viability: 86%
Staphylococcus sp. [5]; [10]
  Viability: 48%
Staphylococcus sp. [5]; [11]
  Viability: 70%
Staphylococcus sp. [5]; [12]
  Viability: 78%
Staphylococcus sp. [5]; [13]
  Viability: 88%
Edwardsiella tarda [6]; digestion 0.1 ppm day 1, 0.01 ppm days 2 and 3, 2 hrs, maintained for 1 week after treatment
  Cumulative mortality: 40%
Edwardsiella tarda [6]; digestion-treated groups in progressive disease, end result (non-treated 80%)
  Cumulative mortality: about 40%
[7]
  safe range of toxicity: below 10 mM
